Read-outs that look alike come from different tables or passages of the source. Numbered stars: 1 amine (or outer) side, 2 acyl side, 3 side chain; on linkers, the order of the positions; unused ones are H or OH. Bridge positions count the residues as written; N and C are the ends. Square brackets hold non-standard residues; d marks the D form. Peptide text beside a SMILES is read from it. * marks the point of attachment. DOTA = O=C(O)CN1CCN(CC(=O)O)CCN(CC(=O)*)CCN(CC(=O)O)CC1; Phe(4-Cl) = N[C@@H](Cc1ccc(Cl)cc1)C(=O)O; Phe(3-F) = N[C@@H](Cc1cccc(F)c1)C(=O)O; Arg(Me) = CNC(=N)NCCC[C@H](N)C(=O)O; X4 = O=C(CN1CCC(N[*:1])CC1)[*:2]; 2Pal = N[C@@H](Cc1ccccn1)C(=O)O; X1 = O=C(CC1CCN([*:1])CC1)[*:2]; Cit = NC(=O)NCCC[C@H](N)C(=O)O; Lys(Me) = CNCCCC[C@H](N)C(=O)O; Tle = CC(C)(C)[C@H](N)C(=O)O; Orn = NCCC[C@H](N)C(=O)O; Aib = CC(C)(N)C(=O)O
Columns and labels:
[1] = biological target: T1, PSMA-expressing C4-2 cells (Homo sapiens, UniProt Q04609); test: FACS binding assay (competition with 50 nM PSM-0183); settings: C4-2 cells, read-out: pIC50 [C4-2] CAT (converted)
T1 construct: PSMA-expressing C4-2 cells (ATCC, Cat. No. CRL-3314) were cultured in RPMI-1640; host or cells: C4-2 cells
T1 sequence (Q04609 whole entry): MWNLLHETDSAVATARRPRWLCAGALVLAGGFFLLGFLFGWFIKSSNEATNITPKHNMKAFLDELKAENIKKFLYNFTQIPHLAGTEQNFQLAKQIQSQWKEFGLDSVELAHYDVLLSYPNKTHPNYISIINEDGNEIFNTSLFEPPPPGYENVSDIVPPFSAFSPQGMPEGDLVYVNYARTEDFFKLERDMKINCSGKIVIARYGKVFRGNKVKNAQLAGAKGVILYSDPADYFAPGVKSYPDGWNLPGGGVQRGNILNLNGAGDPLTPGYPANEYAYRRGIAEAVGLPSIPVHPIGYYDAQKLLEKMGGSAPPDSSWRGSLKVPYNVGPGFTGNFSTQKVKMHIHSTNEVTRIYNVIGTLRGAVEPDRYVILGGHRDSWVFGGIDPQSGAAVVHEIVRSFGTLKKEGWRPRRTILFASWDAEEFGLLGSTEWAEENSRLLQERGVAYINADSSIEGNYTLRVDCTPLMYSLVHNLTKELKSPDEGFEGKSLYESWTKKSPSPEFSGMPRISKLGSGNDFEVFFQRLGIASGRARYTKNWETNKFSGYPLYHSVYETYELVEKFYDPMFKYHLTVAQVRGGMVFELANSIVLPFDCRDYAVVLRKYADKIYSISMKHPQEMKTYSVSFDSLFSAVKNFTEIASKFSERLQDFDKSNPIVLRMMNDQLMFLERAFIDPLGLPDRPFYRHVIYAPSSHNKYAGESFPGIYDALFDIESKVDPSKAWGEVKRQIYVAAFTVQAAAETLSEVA
In short: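 C4-2 cells were incubated 1 h at 4 °C with 50 nM AF488-labelled peptide PSM-0183 plus increasing test compound concentrations, then washed twice in ice-cold buffer. Median fluorescence in the AF488 channel was read by flow cytometry. IC50/pIC50 was derived by 4PL fitting of MFI versus concentration.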

[2] = biological target: T2, Fc-fusion protein of human PSMA (hPSMA-Fc) (Homo sapiens, UniProt Q04609); test: Surface plasmon resonance assay (Biacore T200, single cycle kinetic); assay type: binding; settings: read-out: pKD CAT (converted)
T2 construct: purchased Acro Biosystems PSA-H5264
T2 sequence (Q04609 44-750 limits assumed): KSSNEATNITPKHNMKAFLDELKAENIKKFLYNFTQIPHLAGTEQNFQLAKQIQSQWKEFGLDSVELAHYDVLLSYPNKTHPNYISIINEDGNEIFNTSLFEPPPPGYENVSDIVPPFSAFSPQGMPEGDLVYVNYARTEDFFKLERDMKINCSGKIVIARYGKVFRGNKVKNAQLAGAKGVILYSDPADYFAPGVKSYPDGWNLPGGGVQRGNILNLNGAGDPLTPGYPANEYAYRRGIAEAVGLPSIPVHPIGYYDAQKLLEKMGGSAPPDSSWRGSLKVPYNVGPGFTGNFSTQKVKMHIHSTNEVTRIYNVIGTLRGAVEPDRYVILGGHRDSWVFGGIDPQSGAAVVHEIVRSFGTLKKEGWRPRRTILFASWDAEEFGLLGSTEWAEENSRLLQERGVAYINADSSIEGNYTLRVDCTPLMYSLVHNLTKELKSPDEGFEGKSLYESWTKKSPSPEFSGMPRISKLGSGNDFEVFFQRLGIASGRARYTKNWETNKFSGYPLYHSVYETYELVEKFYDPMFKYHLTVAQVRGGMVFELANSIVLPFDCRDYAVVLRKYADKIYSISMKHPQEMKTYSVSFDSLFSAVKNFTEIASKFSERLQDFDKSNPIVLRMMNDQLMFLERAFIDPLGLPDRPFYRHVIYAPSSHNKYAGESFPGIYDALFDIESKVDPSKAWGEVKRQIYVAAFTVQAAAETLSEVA
In short: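 hPSMA-Fc was captured (~1000 RU) on an Fc-binding-peptide CM5 chip, and compounds were run in single cycle kinetic mode at 25° C in HBST with 0.1% DMSO. Double-blank-corrected sensorgrams were fitted to a 1:1 Langmuir model to give KD, reported as pKD.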

[3] = pKD category for PSMA SPR activity assay, hPSMA-Fc, 25° C.
[4] = FACS binding, competition with 50 nM PSM-0183, category
[5] = SPR, hPSMA-Fc, single cycle kinetic, 25° C., category

SMILES | IC50 ([1]; pIC50 category of FACS binding) [µM] | Kd [2, 3] [µM] | other results
CC(=O)N[C@H](C(=O)NC(C)(C)C(=O)N[C@@H](Cc1ccccc1)C(=O)N[C@H]1CSSC[C@@H](C(=O)N[C@H](C(=O)N[C@H](C(=O)N[C@@H](CC(=O)O)C(N)=O)[C@@H](C)O)C(C)(C)C)NC(=O)[C@H](CC(N)=O)NC(=O)[C@H](C)NC(=O)[C@H](CCCNC(=N)N)NC(=O)[C@H](CCCCN)NC1=O)[C@@H](C)O [PSM-0565, Ac-Thr-Aib-Phe-[Cys-Lys-Arg-Ala-Asn-Cys]-Tle-Thr-Asp-NH2] (Ac-T[Aib]FCKRANC[Tle]TD-NH2; disulfide 4-9) |  |  | IC50 ([1]; FACS binding, category): < 0.2 µM; Kd ([2]; PSMA SPR assay, category): < 0.0126 µM
C[C@@H](O)[C@H](NC(=O)[C@@H](NC(=O)[C@@H]1CSSC[C@H](NC(=O)[C@H](Cc2ccccc2)NC(=O)C(C)(C)NC(=O)CN2CCN(CC(=O)O)CCN(CC(=O)O)CCN(CC(=O)O)CC2)C(=O)N[C@@H](CCCCN)C(=O)N[C@@H](CCCNC(=N)N)C(=O)NC(C)(C)C(=O)N[C@@H](CC(N)=O)C(=O)N1)C(C)(C)C)C(N)=O [PSM-0447, DOTA-Aib-Phe-[Cys-Lys-Arg-Aib-Asn-Cys]-Tle-Thr-NH2] ({DOTA}-[Aib]FCKR[Aib]NC[Tle]T-NH2; disulfide 3-8) | > 3.16 | > 0.501 | 
C[C@@H](O)[C@H](NC(=O)[C@@H](NC(=O)[C@@H]1CSSC[C@H](NC(=O)[C@H](Cc2ccc(Cl)cc2)NC(=O)C(C)(C)NC(=O)CC2CCN(C(=O)CN3CCN(CC(=O)O)CCN(CC(=O)O)CCN(CC(=O)O)CC3)CC2)C(=O)N[C@@H](CCCCN)C(=O)N[C@@H](CCCNC(=N)N)C(=O)NC(C)(C)C(=O)N[C@@H](CC(N)=O)C(=O)N1)C(C)(C)C)C(N)=O [PSM-0248, DOTA-Cmp-Aib-Pcf-[Cys-Lys-Arg-Aib-Asn-Cys]-Tle-Thr-NH2] ({DOTA}-[X1][Aib][Phe(4-Cl)]CKR[Aib]NC[Tle]T-NH2; disulfide 4-9) |  |  | IC50 [1, 4]: < 0.2 µM; Kd [2, 5]: 0.0126 to 0.126 µM
C[C@@H](O)[C@H](NC(=O)[C@@H](NC(=O)[C@@H]1CSSC[C@H](NC(=O)[C@H](Cc2ccccn2)NC(=O)C(C)(C)NC(=O)[C@@H](NC(=O)CC2CCN(C(=O)CN3CCN(CC(=O)O)CCN(CC(=O)O)CCN(CC(=O)O)CC3)CC2)[C@@H](C)O)C(=O)N[C@@H](CCCCN)C(=O)N[C@@H](CCCNC(N)=O)C(=O)NC(C)(C)C(=O)N[C@@H](CC(N)=O)C(=O)N1)C(C)(C)C)C(N)=O [PSM-0512, DOTA-Cmp-Thr-Aib-Opa-[Cys-Lys-Cit-Aib-Asn-Cys]-Tle-Thr-NH2] ({DOTA}-[X1]T[Aib][2Pal]CK[Cit][Aib]NC[Tle]T-NH2; disulfide 5-10) | 0.2 to 1.26 | 0.0126 to 0.126 | 
C[C@@H](O)[C@H](NC(=O)[C@@H](NC(=O)[C@@H]1CSSC[C@H](NC(=O)[C@H](Cc2ccccc2)NC(=O)C(C)(C)NC(=O)CN2CCC(NC(=O)CN3CCN(CC(=O)O)CCN(CC(=O)O)CCN(CC(=O)O)CC3)CC2)C(=O)N[C@@H](CCCCN)C(=O)N[C@@H](CCCNC(=N)N)C(=O)NC(C)(C)C(=O)N[C@@H](CC(N)=O)C(=O)N1)C(C)(C)C)C(N)=O [PSM-0261, DOTA-APAc-Aib-Phe-[Cys-Lys-Arg-Aib-Asn-Cys]-Tle-Thr-NH2] ({DOTA}-[X4][Aib]FCKR[Aib]NC[Tle]T-NH2; disulfide 4-9) |  |  | IC50 [1, 4]: < 0.2 µM; Kd [2, 5]: 0.0126 to 0.126 µM

More lines, main results first:

IC50 ([1]; pIC50 category of FACS binding) [µM] | Kd [2, 3] [µM] | SMILES | other results
< 0.2 | 0.0126 to 0.126 | CNCCCC[C@@H]1NC(=O)[C@@H](NC(=O)[C@H](Cc2cccc(F)c2)NC(=O)C(C)(C)NC(=O)[C@@H](NC(=O)CC2CCN(C(=O)CN3CCN(CC(=O)O)CCN(CC(=O)O)CCN(CC(=O)O)CC3)CC2)[C@@H](C)O)CSSC[C@@H](C(=O)N[C@H](C(N)=O)C(C)(C)C)NC(=O)[C@H](CC(N)=O)NC(=O)C(C)(C)NC(=O)[C@H](CCCNC(=N)NC)NC1=O [PSM-0553, DOTA-Cmp-Thr-Aib-Mff-[Cys-Lys(Me)-Arg(Me)-Aib-Asn-Cys]-Tle-NH2] ({DOTA}-[X1]T[Aib][Phe(3-F)]C[Lys(Me)][Arg(Me)][Aib]NC[Tle]-NH2; disulfide 5-10) | 
< 0.2 | < 0.0126 | C[C@@H](O)[C@H](NC(=O)[C@@H](NC(=O)[C@@H]1CSSC[C@H](NC(=O)[C@H](Cc2ccc(Cl)cc2)NC(=O)C(C)(C)NC(=O)[C@@H](NC(=O)CC2CCN(C(=O)CN3CCN(CC(=O)O)CCN(CC(=O)O)CCN(CC(=O)O)CC3)CC2)[C@@H](C)O)C(=O)N[C@@H](CCCN)C(=O)N[C@@H](CCCNC(=N)N)C(=O)NC(C)(C)C(=O)N[C@@H](CC(N)=O)C(=O)N1)C(C)(C)C)C(N)=O [PSM-0511, DOTA-Cmp-Thr-Aib-Pcf-[Cys-Om-Arg-Aib-Asn-Cys]-Tle-Thr-NH2] ({DOTA}-[X1]T[Aib][Phe(4-Cl)]C[Orn]R[Aib]NC[Tle]T-NH2; disulfide 5-10) | 

From patent US20260083865A1, “PROSTATE SPECIFIC MEMBRANE ANTIGEN (PSMA) LIGANDS AND USE THEREOF” (priority 2022, published 2026)
